Like-named read-outs stand apart in the source and are kept apart here.

The test system of assay [1] is PrPc and PrPsc.
Assay [2] concerns the target PrPc (Mesocricetus auratus, UniProt P04273).
Assay [3] deals with PrPc and PrPsc (Homo sapiens, UniProt P04156).
Assay [4] addresses T1, PrPc (Homo sapiens, UniProt P04156).
In assay [5] the target is T1, PrPc. The source holds these as a separate data set.
Where [6] appears, read: Fast Red staining with 3F4, red/pink beads indicate bound native PrPc or antibody, scrapie-infected hamster brain homogenate.

Chain of PrPc (Mesocricetus auratus, UniProt P04273) (P04273 23-254 limits assumed): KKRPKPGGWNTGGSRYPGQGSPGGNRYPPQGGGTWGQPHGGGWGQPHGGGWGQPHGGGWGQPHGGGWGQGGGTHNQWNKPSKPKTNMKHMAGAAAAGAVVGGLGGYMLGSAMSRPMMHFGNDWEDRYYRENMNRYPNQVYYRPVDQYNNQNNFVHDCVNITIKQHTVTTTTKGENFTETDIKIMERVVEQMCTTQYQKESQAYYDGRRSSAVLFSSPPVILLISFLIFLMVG

Consider FQGTREA, for which the “Intensity of Chemiluminescent Signal after Denaturing” value (shortened to “Intensity of Chemiluminescent Signal”) in the assay with PrPc and PrPsc [1] is “Strong”. In addition, on PrPc [2], the “Bead Color” value is reported as “White”.

With DVR, at PrPc and PrPsc [3], the “Isoform binding preference concluded from first and second support signals” value was “preferentially binds PrPsc”; the “Signal on the second support following denaturation and transfer” value is “strong”. Moreover, the “Bead colour under the microscope following on-bead detection” value on PrPc [4] is reported as “white”. Further, on PrPc [5], the “Signal on the first support” value is given as “weak”. Moreover, the “Intensity of Chemiluminescent Signal” value in the assay with PrPc and PrPsc [1] was “Strong”. On PrPc [2], the “Bead Color” value is given as “White”.

As to EHATYRA, the “Intensity of Chemiluminescent Signal” value in the assay on PrPc and PrPsc [1] is on record as “Strong”. Further, the “Bead Color” value at PrPc [2] was “White”.

Regarding YID, in the assay with PrPc and PrPsc [1], the “Intensity of Chemiluminescent Signal” value is on record as “Strong”. Moreover, the “Bead Color” value on PrPc [2] (setting [6]) is listed as “Bright pink”.

On to WEE, for which the “Beads identified as PrPsc-specific binders (film 2 signal from PrPres after PK)” value (from here on “Beads identified”) in the assay on PrPres was “specific for PrPsc”.

NSTKFDA: the “Intensity of Chemiluminescent Signal” value with PrPc and PrPsc [1] was “Strong”. Besides, the “Bead Color” value at PrPc [2] is listed as “Pink”.

Consider LLR, for which the “Beads identified” value in the assay on PrPres was “specific for PrPsc”.

Turning to KWATRYA, the “Intensity of Chemiluminescent Signal” value in the assay with PrPc and PrPsc [1] is on record as “Strong”. For the same substance, the “Bead Color” value at PrPc [2] was “White”.

Turning to SVYQLDA, the “Intensity of Chemiluminescent Signal” value in the assay on PrPc and PrPsc [1] was “Medium”. Besides, on PrPc [2], the “Bead Color” value is listed as “White”.

FPK: the “Beads identified” value with PrPres is recorded as “specific for PrPsc”.

As for RWEREDA, the “Intensity of Chemiluminescent Signal” value in the assay on PrPc and PrPsc [1] is recorded as “Strong”. On PrPc [2], the “Bead Color” value is listed as “Pink”.

As to TGTNRYA, in the assay on PrPc and PrPsc [1], the “Intensity of Chemiluminescent Signal” value was “Strong”. Further, the “Bead Color” value on PrPc [2] is reported as “White”.

As to EWWETV, the “Intensity of Chemiluminescent Signal” value in the assay on PrPc and PrPsc [1] is “Medium”. For the same substance, the “Bead Color” value at PrPc [2] is given as “White”.

Consider RWD, for which the “Intensity of Chemiluminescent Signal” value in the assay with PrPc and PrPsc [1] was “Strong”. In addition, the “Bead Color” value on PrPc [2] (setting [6]) is reported as “Bright pink”.

VARENIA: the “Intensity of Chemiluminescent Signal” value in the assay with PrPc and PrPsc [1] is listed as “Strong”. The “Bead Color” value at PrPc [2] was “White”.

Take HWK: the “Beads identified” value in the assay with PrPres is recorded as “specific for PrPsc”.

These data come from US20050032138A1 (priority 2003, published 2005).
